pKi: −log10 of the molar value.
Target: T1, human neutrophil elastase (HNE) (Homo sapiens, UniProt P08246)
T1 sequence (P08246 30-267): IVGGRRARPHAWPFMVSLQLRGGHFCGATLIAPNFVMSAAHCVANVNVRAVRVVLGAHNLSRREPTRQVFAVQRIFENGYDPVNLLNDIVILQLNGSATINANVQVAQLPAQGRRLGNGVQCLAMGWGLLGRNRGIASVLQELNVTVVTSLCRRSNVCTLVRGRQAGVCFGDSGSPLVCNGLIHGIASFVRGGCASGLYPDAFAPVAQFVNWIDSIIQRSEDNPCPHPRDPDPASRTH
Experiment: HNE Ki of CE compounds, tested as described in WO 96/16080
Assay type: biochemical
Conditions: read-out: HNE Ki

Compound	pKi
2-Oxo-5-methyl-1,4-(1-thiophenodiazepine)-N-[1-(2-[5-(3-methylbenzyl)-1,3,4-oxadiazolyl]carbonyl)-2-(S)-methylpropyl]acetamide [CE2244]	7.11
3-(S)-Amino-ε-lactam-N-[1-(2-[5-(3-methylbenzyl)-1,3,4-oxadiazolyl]carbonyl)-2-(S)-methylpropyl]acetamide trifluoroacetic acid salt [CE2080]	7.21
3-(S)-[(4-Morpholino carbonyl-butanoyl)amino]-ε-lactam-N-[1-(2-[5-(3-methylbenzyl)-1,3,4-oxadiazolyl]carbonyl)-2-(R,S)-methylpropyl]acetamide [CE2091]	6.57
Cc1cc(C)cc(Cc2nc(C(=O)[C@@H](NC(=O)[C@@H]3CCCN3C(=O)[C@@H](NC(=O)OCc3ccccc3)C(C)C)C(C)C)no2)c1 [CE2052, (Benzyloxycarbonyl)-L-valyl-N-[1-(3-[5-(3,5-dimethylbenzyl)-1,2,4-oxadiazolyl)carbonyl)-2-(S)-methylpropyl]-L-prolinamide]	9.43
CC(C)[C@H](NC(=O)[C@@H]1CCCN1C(=O)[C@@H](NC(=O)OCc1ccccc1)C(C)C)C(=O)c1noc(Cc2ccc(-c3ccccc3)cc2)n1 [CE2058, (Benzyloxycarbonyl)-L-valyl-N-[1-(3-[5-(4-phenylbenzyl)-1,2,4-oxadiazolyl]carbonyl)-2-(S)-methylpropyl]-L-prolinamide]	9.25
CC(C)[C@H](NC(=O)[C@@H]1CCCN1C(=O)[C@@H](NC(=O)OCc1ccccc1)C(C)C)C(=O)c1noc(Cc2cccc(Oc3ccccc3)c2)n1 [CE2066, (Benzyloxycarbonyl)-L-valyl-N-[1-(3-[5-(3-phenoxybenzyl)-1,2,4-oxadiazolyl]carbonyl)-2-(S)-methylpropyl]-L-prolinamide]	9.01
CC(C)[C@H](NC(=O)[C@@H]1CCCN1C(=O)[C@@H](NC(=O)OCc1ccccc1)C(C)C)C(=O)c1noc(CC2CCCCC2)n1 [CE2069]	8.36
Cc1nnc(C(=O)[C@@H](NC(=O)[C@@H]2CCCN2C(=O)[C@@H](NC(=O)OCc2ccccc2)C(C)C)C(C)C)o1 [CE2074]	9.00
CC(C)[C@H](NC(=O)[C@@H]1CCCN1C(=O)[C@@H](NC(=O)OCc1ccccc1)C(C)C)C(=O)c1noc(Cc2cccc3ccccc23)n1 [CE2077, (Benzyloxycarbonyl)-L-valyl-N-[1-(3-[5-(1-napthylmethylene)-1,2,4-oxadiazolyl]carbonyl)-2-(S)-methylpropyl]-L-prolinamide]	9.82
CC(C)C(NC(=O)CN1C(=O)CN(C)C(=O)C1c1ccccc1)C(=O)c1noc(Cc2cccc(C(F)(F)F)c2)n1 [CE2084, 4-[1-Methyl-3-(R,S)-phenylpiperazine-2,5,-dione]-N-[1-(3-[5-(3-trifluoromethylbenzyl)-1,2,4-oxadiazolyl]carbonyl)-2-(S)-methylpropyl]acetamide]	6.88
CC(C)[C@H](NC(=O)Cn1c(-c2ccc(F)cc2)ncc(NC(=O)OCc2ccccc2)c1=O)C(=O)c1noc(Cc2cccc(C(F)(F)F)c2)n1 [CE2089, 2-[5-[(Benzyloxycarbonyl]amino]-6-oxo-2-(4-fluorophenyl)-1,6-dihydro-1-pyrimidinyl]-N-[1-(3-[5-(3-trifluoromethylbenzyl)-1,2,4-oxadiazolyl]carbonyl)7(S)-2-methylpropyl]acetamide]	8.82
CC(C)[C@H](NC(=O)CN(Cc1ccccc1)C(=O)c1ccc[nH]1)C(=O)c1noc(Cc2cccc(C(F)(F)F)c2)n1 [CE2097, (Pyrrole-2-carbonyl)-N-(benzyl)glycyl-N-[1-(3-[5-(3-trifluoromethylbenzyl)1-1,2,4-oxadiazolyl]carbonyl)-(S)-methylpropyl]amide]	6.94
CC(=O)N1CC(=O)N(CC(=O)N[C@H](C(=O)c2nnc(Cc3cccc(C)c3)o2)C(C)C)C(=Cc2ccc(F)cc2)C1=O [CE2105, 1-Acetyl-3-(4-fluorobenzylidene) piperazine-2,5-dione-N-[1-(2-[5-(3-methylbenzyl)-1,3,4-oxadiazolyl]carbonyl)-2-(S)-methylpropyl]acetamide]	9.14
Cc1cccc(Cc2nnc(C(=O)[C@@H](NC(=O)Cn3c(=O)c(NC(=O)OCc4ccccc4)cc4ccccc43)C(C)C)o2)c1 [CE2108, 3-[(Benzyloxycarbonyl)amino]-quinoline-2-one-N-[1-(2-[5-(3-methylbenzyl)-1,3,4-oxadiazolyl]carbonyl)-2-(S)-methylpropyl]acetamide]	7.98
COC(=O)c1ccc(C=C2C(=O)N(C(C)=O)CC(=O)N2CC(=O)N[C@H](C(=O)c2nnc(Cc3cccc(C)c3)o2)C(C)C)cc1 [CE2112, 1-Acetyl-3-(4-carbomethoxybenzylidene) piperazine-2,5-dione-N-[1-(2-[5-(3-methylbenzyl)-1,3,4-oxadiazolyl]carbonyl)-2-(S)-methylpropyl]acetamide]	8.92
CC(=O)N1CC(=O)N(CC(=O)N[C@H](C(=O)c2nnc(Cc3cccc(C)c3)o2)C(C)C)C(=Cc2ccncc2)C1=O [CE2114, 1-Acetyl-3-[(4-pyridyl)methylene] piperazine-2,5-dione-N-[1-(2-[5-(3-methylbenzyl)-1,3,4-oxadiazolyl]carbonyl)-2-(S)-methylpropyl]acetamide]	7.60

More lines, in order of rising pKi, values ahead:

pKi	Compound
7.39	Cc1cccc(Cc2nnc(C(=O)C(NC(=O)CN3C(=O)CN(C)C(=O)C3c3ccccc3)C(C)C)o2)c1 [CE2106, 4-[1-Methyl-3-(R,S)-phenylpiperazine-2,5,-dione]-N-[1-(2-[5-(3-methylbenzyl)-1,3,4-oxadiazolyl]carbonyl)-2-(S)-methylpropyl]acetamide]
7.70	Cc1cccc(Cc2nnc(C(=O)C(NC(=O)CN3C(=O)CCCC3c3ccc(F)cc3)C(C)C)o2)c1 [CE2087, 6-[4-Fluorophenyl]-ε-lactam-N-[1-(2-[5-(3-methylbenzyl)-1,3,4-oxadiazolyl]carbonyl)-2-(S)-methylpropyl]acetamide]
7.77	Cc1cccc(Cc2nnc(C(=O)[C@@H](NC(=O)Cn3c(=O)c(NC(=O)OCc4ccccc4)cc4ccc(N5CCCCC5)cc43)C(C)C)o2)c1 [CE2107, 3-[(Benzyloxycarbonyl)amino]-7-piperidinyl-quinoline-2-one-N-[1-(2-[5-(3-methylbenzyl)-1,3,4-oxadiazolyl]carbonyl)-2-(S)-methylpropyl]acetamide]
8.57	CC(C)[C@H](NC(=O)Cn1c(-c2ccc(F)cc2)ncc(N)c1=O)C(=O)c1noc(Cc2cccc(C(F)(F)F)c2)n1 [CE2090]
8.98	CC(C)[C@H](NC(=O)[C@@H]1CCCN1C(=O)[C@@H](NC(=O)OCc1ccccc1)C(C)C)C(=O)c1noc(Cc2cccnc2)n1 [CE2078, (Benzyloxycarbonyl)-L-valyl-N-[1-(3-[5-(3-pyridylmethyl)-1,2,4-oxadiazolyl]carbonyl)-2-(S)-methylpropyl]-L-prolinamide]
9.00	CC(C)[C@H](NC(=O)[C@@H]1CCCN1C(=O)[C@@H](NC(=O)OCc1ccccc1)C(C)C)C(=O)c1noc(Cc2ccc(N(C)C)cc2)n1 [CE2115, (Benzyloxycarbonyl)-L-valyl-N-[1-(3-[5-(4-dimethylaminobenzyl)-1,2,4-oxadiazolyl]carbonyl)-2-(S)-methylpropyl]-L-prolinamide]
9.10	CC(C)[C@H](NC(=O)[C@@H]1CCCN1C(=O)[C@@H](NC(=O)OCc1ccccc1)C(C)C)C(=O)c1noc(Cc2cc(-c3ccccc3)cc(-c3ccccc3)c2)n1 [CE2096, (Benzyloxycarbonyl)-L-valyl-N-[1-(3-[5-(3,5-diphenylbenzyl)-1,2,4-oxadiazolyl]carbonyl)-2-(S)-methylpropyl]-L-prolinamide]
9.39	COc1cc(Cc2nc(C(=O)[C@@H](NC(=O)[C@@H]3CCCN3C(=O)[C@@H](NC(=O)OCc3ccccc3)C(C)C)C(C)C)no2)cc(OC)c1 [CE2053, (Benzyloxycarbonyl)-L-valyl-N-[1-(3-[5-(3,5-dimethoxybenzyl)-1,2,4-oxadiazolyl]carbonyl)-2-(S)-methylpropyl]-L-prolinamide]
9.43	CC(C)[C@H](NC(=O)[C@@H]1CCCN1C(=O)[C@@H](NC(=O)OCc1ccccc1)C(C)C)C(=O)c1noc(C(c2ccccc2)c2ccccc2)n1 [CE2057]
9.48	Cc1cccc(Cc2nnc(C(=O)[C@@H](NC(=O)[C@@H]3CCCN3C(=O)[C@@H](NC(=O)N3CCOCC3)C(C)C)C(C)C)o2)c1 [CE2104, (Morpholino-N-carbonyl)-L-valyl-N-[1-(2-[5-(3-methylbenzyl)-1,3,4-oxadiazolyl]carbonyl)-2-(S)-methylpropyl]-L-prolinamide]
9.52	CC(C)[C@H](NC(=O)[C@@H]1CCCN1C(=O)[C@@H](NC(=O)OCc1ccccc1)C(C)C)C(=O)c1noc(Cc2cccc(-c3ccccc3)c2)n1 [CE2062, (Benzyloxycarbonyl)-L-valyl-N-[1-(3-[5{3-phenylbenzyl)-1,2,4-oxadiazolyl]carbonyl)-2-(S)-methylpropyl]-L-prolinamide]
9.54	CC(C)[C@H](NC(=O)[C@@H]1CCCN1C(=O)[C@@H](NC(=O)OCc1ccccc1)C(C)C)C(=O)c1noc(Cc2cc(C(F)(F)F)cc(C(F)(F)F)c2)n1 [CE2054, (Benzyloxycarbonyl)-L-valyl-N-[1-(3-[5-(3,5-ditrifluoromethylbenzyl)-1,2,4-oxadiazolyl]carbonyl)-2-(S)-methylpropyl]-L-prolinamide]
9.63	CC(C)[C@H](NC(=O)[C@@H]1CCCN1C(=O)[C@@H](NC(=O)OCc1ccccc1)C(C)C)C(=O)c1noc(C(C)(C)c2cccc(C(F)(F)F)c2)n1 [CE2073, (Benzyloxycarbonyl)-L-valyl-N-[1-(3-[5-(α,α-dimethyl-3-trifluoromethylbenzyl)-1,2,4-oxadiazolyl]carbonyl)-2-(S)-methylpropyl]-L-prolinamide]
10.41	CC(C)[C@H](NC(=O)[C@@H]1CCCN1C(=O)[C@@H](NC(=O)OCc1ccccc1)C(C)C)C(=O)c1nnc(Cc2cccc(C(F)(F)F)c2)o1 [CE2075, (Benzyloxycarbonyl)-L-valyl-N-[1-(2-[5-(3-trifluoromethylbenzyl)-1,3,4-oxadiazolyl]carbonyl)-2-(S)-methylpropyl]-L-prolinamide]
